Data on four compounds can be found in US8252811B2, “Indazoles, benzothiazoles, and benzoisothiazoles, and preparation and uses thereof” (Memory Pharmaceuticals Corporation, priority 2002, dated 2012).

Each structure is given as a SMILES string.

As for `Cl.O=C(N[C@H]1CN2CCC1CC2)c1ccc2ncsc2c1`, the melting point was 285 °C (dec.).
The compound `Cl.O=C(N[C@H]1CN2CCC1CC2)c1ccc2scnc2c1` registered a melting point of 170 to 180 °C.
The result for `Cl.O=C(N[C@@H]1CN2CCC1CC2)c1ccc2scnc2c1` reads 166 to 176 °C; that for `Cl.O=C(N[C@@H]1CN2CCC1CC2)c1cccc2cn[nH]c12`, 180 to 188 °C.
